Read-outs that look alike come from different tables or passages of the source.
Experiments:
Assay type in all cases: cell-based
[1] = system: recombinant NL4-3 virus (nef section replaced with Renilla luciferase gene) in MT-2 cells; test: HIV cell culture assay (antiviral activity, luciferase readout in infected MT-2 cells)
Description: HIV cell culture assay-MT-2 cells, 293T cells and the proviral DNA clone of NL4-3 virus were obtained from the NIH AIDS Research and Reference Reagent Program. MT-2 cells were propagated in RPMI 1640 media supplemented with 10% heat inactivated fetal bovine serum (FBS), 100 μg/ml penicillin G and up to 100 units/mL streptomycin. The 293T cells were propagated in DMEM media supplemented with 10% heat inactivated FBS, 100 μg/mL penicillin G and 100 μg/mL streptomycin. A recombinant NL4-3 proviral clone, in which a section of the nef gene was replaced with the Renilla luciferase gene, was used to make the reference virus used in these studies. The recombinant virus was prepared through transfection of the recombinant NL4-3 proviral clone into 293T cells using Transit-293 Transfection Reagent from Minis Bio LLC (Madison, WI). Supernatent was harvested after 2-3 days and the amount of virus present was titered in MT-2 cells using luciferase enzyme activity as a marker by measuring luciferase enzyme activity. Luciferase was quantitated using the EnduRen Live Cell Substrate from Promega (Madison, WI). Antiviral activities of compounds toward the recombinant virus were quantified by measuring luciferase activity in MT-2 cells infected for 4-5 days with the recombinant virus in the presence of serial dilutions of the compound.
The 50% effective concentration (EC50) was calculated by using the exponential form of the median effect equation where (Fa)=1/[1+(ED50/drug conc.)m] (Johnson V A, Byington R T. Infectivity Assay. In Techniques in HIV Research. ed. Aldovini A, Walker B D. 71-76. New York: Stockton Press. 1990).

[2] = Compound cytotoxicity, XTT-based colorimetric assay; settings: human; uninfected MT2 cells, day 4, XTT assay
Description: (§1) Compound cytotoxicity and the corresponding CC50 values were determined using the same protocol as described in the antiviral assay except that uninfected cells were used. Cytotoxicity was assessed on day 4 in uninfected MT2 cells by using an XTT (2,3-bis[2-Methoxy-4-nitro-5-sulfophenyl]-2H-tetrazolium-5-carboxyanilide inner salt)-based colorimetric assay (Sigma-Aldrich, St Louis, Mo.).

uninfected MT2 cells = test: as above; settings: day 4, XTT assay
Description: as §1

[3] = MT-2 cells infected for 4-5 days with recombinant NL4-3 Renilla luciferase virus, luciferase activity, read-out: EC50

Compound	EC50 ([1]; Renilla, NL43)	CC50 at 4 days [2]	EC50 [1, 3]	CC50 (uninfected MT2 cells)
CCCCOCCOc1ccc2c(=O)n(-c3ccc(Cl)c4c(NS(C)(=O)=O)nn(C)c34)c([C@H](Cc3cc(F)cc(F)c3)NC(=O)Cn3nc(C(F)F)c4c3C(F)(F)[C@@H]3C[C@H]43)nc2n1 (atropisomer, axis not shown; (P)) [Example 27, N—((S)-1-(7-(2-butoxyethoxy)-(3P)-3-(4-chloro-1-methyl-3-(methylsulfonamido)-1H-indazol-7-yl)-4-oxo-3,4-dihydropyrido[2,3-d]pyrimidin-2-yl)-2-(3,5-difluorophenyl)ethyl)-2-((3bS,4aR)-3-(difluoromethyl)-5,5-difluoro-3b,4,4a,5-tetrahydro-1H-cyclopropa[3,4]cyclopenta[1,2-c]pyrazol-1-yl)acetamide]	0.041 nM	> 100 nM	–	–
Cn1nc(NS(C)(=O)=O)c2c(Cl)ccc(-n3c([C@H](Cc4cc(F)cc(F)c4)NC(=O)Cn4nc(C(F)F)c5c4C(F)(F)[C@@H]4C[C@H]54)nc4nc(OCCOC5CC5)ccc4c3=O)c21 (atropisomer, axis not shown; (P)) [Example 29, N—((S)-1-((3P)-3-(4-chloro-1-methyl-3-(methylsulfonamido)-1H-indazol-7-yl)-7-(2-cyclopropoxyethoxy)-4-oxo-3,4-dihydropyrido[2,3-d]pyrimidin-2-yl)-2-(3,5-difluorophenyl)ethyl)-2-((3bS,4aR)-3-(difluoromethyl)-5,5-difluoro-3b,4,4a,5-tetrahydro-1H-cyclopropa[3,4]cyclopenta[1,2-c]pyrazol-1-yl)acetamide]	0.034 nM	> 100 nM	–	–
Cn1nc(NS(C)(=O)=O)c2c(Cl)ccc(-n3c([C@H](Cc4cc(F)cc(F)c4)NC(=O)Cn4nc(C(F)F)c5c4C(F)(F)[C@@H]4C[C@H]54)nc4nc(OCc5ccccn5)ccc4c3=O)c21 (atropisomer, axis not shown; (P)) [Example 30, N—((S)-1-((3P)-3-(4-chloro-1-methyl-3-(methylsulfonamido)-1H-indazol-7-yl)-4-oxo-7-(pyridin-2-ylmethoxy)-3,4-dihydropyrido[2,3-d]pyrimidin-2-yl)-2-(3,5-difluorophenyl)ethyl)-2-((3bS,4aR)-3-(difluoromethyl)-5,5-difluoro-3b,4,4a,5-tetrahydro-1H-cyclopropa[3,4]cyclopenta[1,2-c]pyrazol-1-yl)acetamide]	0.043 nM	> 100 nM	–	–
CO[C@H](C)COc1ccc2c(=O)n(-c3ccc(Cl)c4c(NS(C)(=O)=O)nn(C)c34)c([C@H](Cc3cc(F)cc(F)c3)NC(=O)Cn3nc(C(F)F)c4c3C(F)(F)[C@@H]3C[C@H]43)nc2n1 [Example 31, N—((S)-1-((3P)-3-(4-chloro-1-methyl-3-(methylsulfonamido)-1H-indazol-7-yl)-7-((R)-2-methoxypropoxy)-4-oxo-3,4-dihydropyrido[2,3-d]pyrimidin-2-yl)-2-(3,5-difluorophenyl)ethyl)-2-((3bS,4aR)-3-(difluoromethyl)-5,5-difluoro-3b,4,4a,5-tetrahydro-1H-cyclopropa[3,4]cyclopenta[1,2-c]pyrazol-1-yl)acetamide]	0.019 nM	> 100 nM	–	–
N—((S)-1-((3P)-3-(4-chloro-1-(2,2-difluoroethyl)-3-(methylsulfonamido)-1H-indazol-7-yl)-7-(2-cyclopropylethoxy)-4-oxo-3,4-dihydropyrido[2,3-d]pyrimidin-2-yl)-2-(3,5-difluorophenyl)ethyl)-2-((3bS,4aR)-3-(difluoromethyl)-5,5-difluoro-3b,4,4a,5-tetrahydro-1H-cyclopropa[3,4]cyclopenta[1,2-c]pyrazol-1-yl)acetamide [Example 22]	–	–	0.29 nM	> 500 nM
N—((S)-1-((3P)-3-(4-chloro-1-methyl-3-(methylsulfonamido)-1H-indazol-7-yl)-4-oxo-7-(pyrimidin-2-ylmethoxy)-3,4-dihydropyrido[2,3-d]pyrimidin-2-yl)-2-(3,5-difluorophenyl)ethyl)-2-((3bS,4aR)-3-(difluoromethyl)-5,5-difluoro-3b,4,4a,5-tetrahydro-1H-cyclopropa[3,4]cyclopenta[1,2-c]pyrazol-1-yl)acetamide [Example 9]	–	–	0.03 nM	> 1000 nM

Source: patent US11919897B2, “Inhibitors of human immunodeficiency virus replication” (VIIV HEALTHCARE UK (No. 5) LIMITED, priority 2018, dated 2024)
